{"source": "PubChem BioAssay AID2060617", "about": "(Molecular Pharmacology Branch, DTP, NCI, 2025);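 note: spheroids exposed to compounds for seven days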;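 for viability, T/C: 100% = DMSO vehicle control wells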", "system": "485368-065-R4-J2-PDC spheroids with HUVEC/MSC, viability", "experiment": "Anticancer human tumor 485368-065-R4-J2-PDC patient-derived pancreatic carcinoma cell line growth inhibition [CLK]", "settings": "for IC50: curve of first compound; for viability, T/C: stronger effect = lower value", "outline": "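Patient-derived tumor cells grown as complex spheroids with HUVEC endothelial cells and mesenchymal stem cells, treated with drug combinations. Concentrations descend in half-log steps from near clinical Cmax, or from 10 microM if Cmax unknown.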", "data": [{"smiles": "COc1ccc([C@@H](O)c2cc(-c3ncnc4cc(N5CCOCC5)ccc34)c(F)cc2Cl)nn1", "note": "+ CNC(=O)c1ccc(Nc2nc(OC3CCCC3)c3c(-c4ccc5nc(C)oc5c4)c[nH]c3n2)c(OC)c1", "values": [{"measurement": "IC50", "setting": "second compound 0.0316 µM", "result": "> 10", "unit": "µM"}, {"measurement": "IC50", "setting": "second compound 0.1 µM", "result": "> 10", "unit": "µM"}, {"measurement": "IC50", "setting": "second compound 0.316 µM", "result": "> 10", "unit": "µM"}, {"measurement": "IC50", "setting": "second compound 1 µM", "result": "> 10", "unit": "µM"}, {"measurement": "IC50", "setting": "second compound 3.16 µM", "result": "> 10", "unit": "µM"}, {"measurement": "IC50", "setting": "second compound 10 µM", "result": "> 10", "unit": "µM"}, {"measurement": "viability, T/C", "setting": "second compound 0.0316 µM, first compound 0.0316 µM", "result": 84.1, "unit": "%"}, {"measurement": "viability, T/C", "setting": "second compound 0.0316 µM, first compound 0.1 µM", "result": 96.7, "unit": "%"}, {"measurement": "viability, T/C", "setting": "second compound 0.0316 µM, first compound 0.316 µM", "result": 96.1, "unit": "%"}, {"measurement": "viability, T/C", "setting": "second compound 0.0316 µM, first compound 1 µM", "result": 103, "unit": "%"}, {"measurement": "viability, T/C", "setting": "second compound 0.0316 µM, first compound 3.16 µM", "result": 122, "unit": "%"}, {"measurement": "viability, T/C", "setting": "second compound 0.0316 µM, first compound 10 µM", "result": 83.7, "unit": "%"}, {"measurement": "viability, T/C", "setting": "second compound 0.1 µM, first compound 0.0316 µM", "result": 86.5, "unit": "%"}, {"measurement": "viability, T/C", "setting": "second compound 0.1 µM, first compound 0.1 µM", "result": 99.7, "unit": "%"}, {"measurement": "viability, T/C", "setting": "second compound 0.1 µM, first compound 0.316 µM", "result": 95.1, "unit": "%"}, {"measurement": "viability, T/C", "setting": "second compound 0.1 µM, first compound 1 µM", "result": 103, "unit": "%"}, {"measurement": "viability, T/C", "setting": "second compound 0.1 µM, first compound 3.16 µM", "result": 96.6, "unit": "%"}, {"measurement": "viability, T/C", "setting": "second compound 0.1 µM, first compound 10 µM", "result": 87.6, "unit": "%"}, {"measurement": "viability, T/C", "setting": "second compound 0.316 µM, first compound 0.0316 µM", "result": 82.2, "unit": "%"}, {"measurement": "viability, T/C", "setting": "second compound 0.316 µM, first compound 0.1 µM", "result": 77.8, "unit": "%"}, {"measurement": "viability, T/C", "setting": "second compound 0.316 µM, first compound 0.316 µM", "result": 86.6, "unit": "%"}, {"measurement": "viability, T/C", "setting": "second compound 0.316 µM, first compound 1 µM", "result": 73.6, "unit": "%"}, {"measurement": "viability, T/C", "setting": "second compound 0.316 µM, first compound 3.16 µM", "result": 81.5, "unit": "%"}, {"measurement": "viability, T/C", "setting": "second compound 0.316 µM, first compound 10 µM", "result": 66.5, "unit": "%"}, {"measurement": "viability, T/C", "setting": "second compound 1 µM, first compound 0.0316 µM", "result": 69.8, "unit": "%"}, {"measurement": "viability, T/C", "setting": "second compound 1 µM, first compound 0.1 µM", "result": 70.9, "unit": "%"}, {"measurement": "viability, T/C", "setting": "second compound 1 µM, first compound 0.316 µM", "result": 72.1, "unit": "%"}, {"measurement": "viability, T/C", "setting": "second compound 1 µM, first compound 1 µM", "result": 67.6, "unit": "%"}, {"measurement": "viability, T/C", "setting": "second compound 1 µM, first compound 3.16 µM", "result": 65.5, "unit": "%"}, {"measurement": "viability, T/C", "setting": "second compound 1 µM, first compound 10 µM", "result": 59.2, "unit": "%"}, {"measurement": "viability, T/C", "setting": "second compound 3.16 µM, first compound 0.0316 µM", "result": 68.3, "unit": "%"}, {"measurement": "viability, T/C", "setting": "second compound 3.16 µM, first compound 0.1 µM", "result": 62.7, "unit": "%"}, {"measurement": "viability, T/C", "setting": "second compound 3.16 µM, first compound 0.316 µM", "result": 68.8, "unit": "%"}, {"measurement": "viability, T/C", "setting": "second compound 3.16 µM, first compound 1 µM", "result": 57, "unit": "%"}, {"measurement": "viability, T/C", "setting": "second compound 3.16 µM, first compound 3.16 µM", "result": 54.9, "unit": "%"}, {"measurement": "viability, T/C", "setting": "second compound 3.16 µM, first compound 10 µM", "result": 51.4, "unit": "%"}, {"measurement": "viability, T/C", "setting": "second compound 10 µM, first compound 0.0316 µM", "result": 63.7, "unit": "%"}, {"measurement": "viability, T/C", "setting": "second compound 10 µM, first compound 0.1 µM", "result": 70.4, "unit": "%"}, {"measurement": "viability, T/C", "setting": "second compound 10 µM, first compound 0.316 µM", "result": 65.4, "unit": "%"}, {"measurement": "viability, T/C", "setting": "second compound 10 µM, first compound 1 µM", "result": 57.5, "unit": "%"}, {"measurement": "viability, T/C", "setting": "second compound 10 µM, first compound 3.16 µM", "result": 54.8, "unit": "%"}, {"measurement": "viability, T/C", "setting": "second compound 10 µM, first compound 10 µM", "result": 50.1, "unit": "%"}]}]}
